This passage reports inhibition results from PubChem BioAssay AID588589 (The Scripps Research Institute Molecular Screening Center, 2011).

Active and inactive are the calls of the source. The rule behind the calls is not given here.

For this test, the system named is Fam108b (ABHD17B) [Mus musculus], recombinant soluble. In words: mouse Fam108b hydrolase inhibitors, soluble construct – biochemical, gel-based ABPP, soluble form, SAR follow-up (AID 588589). As to conditions: fluorophosphonate probe, at 5 µM, active compounds read high.
The inhibition is the drop in the measured response relative to a control, in per cent. As for `COc1cc2nc(-c3ccc(C(C)(C)C)cc3)oc(=O)c2cc1OC`, the inhibition was 0% (inactive). On to `Cc1nsc2nc(-c3cc([N+](=O)[O-])ccc3Cl)oc(=O)c12`, for which the inhibition was 15% (inactive). Consider `CC(C)(C)c1ccc(-c2nc3scc(-c4ccccc4)c3c(=O)o2)cc1`, for which the inhibition was 0% (inactive). `Cc1nsc2nc(-c3ccc(F)cc3Cl)oc(=O)c12`: the inhibition was 25% (inactive).

For the compound `O=C1CCC(=O)N1c1ccc(-c2nc3scc(-c4cccs4)c3c(=O)o2)cc1`, the inhibition was 0% (inactive). Consider `O=c1oc(-c2cc3ccccc3o2)nc2ccc(Br)cc12`, for which the inhibition was 0% (inactive). As for `O=c1oc(-c2ccco2)nc2cccc(F)c12`, the inhibition was 5% (inactive). As to `O=c1oc(-c2cccc(Cl)c2)nc2c1cnn2-c1ccccc1`, the inhibition is 20% (inactive). For `CCc1nsc2nc(-c3ccccc3Cl)oc(=O)c12`, the inhibition was 20% (inactive). Next, `CCCOc1cccc(-c2nc3cc(OC)c(OC)cc3c(=O)o2)c1`: 10% (inactive); `Cc1nsc2nc(-c3cc(Br)cnc3Cl)oc(=O)c12`: 10% (inactive); `O=c1oc(-c2ccc(C(F)(F)F)cc2)nc2c1oc1ccc(Cl)cc12`: 40% (inactive).

Take `COc1cc(-c2nc3scc(-c4ccccc4)c3c(=O)o2)cc(OC)c1OC`: the inhibition was 0% (inactive). On to `O=c1oc(-c2cccc(Br)c2)nc2scc(-c3ccccc3)c12`, for which the inhibition is 5% (inactive). Consider `O=c1oc(-c2ccc(Br)cc2)nc2scc(-c3cccs3)c12`, for which the inhibition was 0% (inactive).

Take `O=c1oc(-c2cccs2)nc2scc(-c3ccccc3)c12`: the inhibition is 55% (inactive). For `CCOc1ccc(-c2csc3nc(-c4ccccc4C)oc(=O)c23)cc1`, the inhibition is 5% (inactive).

In the case of `CC(C)c1nsc2nc(-c3ccccc3Cl)oc(=O)c12`, the inhibition is 0% (inactive). Next, `COc1ccc(/C=C/c2nc3scc(-c4cccs4)c3c(=O)o2)cc1`: 0% (inactive); `CCN(CC)S(=O)(=O)c1ccc(Cl)c(-c2nc3snc(C)c3c(=O)o2)c1`: 0% (inactive); `Cc1nsc2nc(-c3cc(S(=O)(=O)N4CCCCC4)ccc3Cl)oc(=O)c12`: 15% (inactive). As for `O=c1oc(-c2ccccc2Cl)nc2c1oc1ccccc12`, the inhibition was 40% (inactive).

For `COc1ccc(-c2csc3nc(-c4ccc(C)cc4)oc(=O)c23)cc1`, the inhibition is 0% (inactive). As for `O=c1oc(-c2ccccc2Cl)nc2c1cnn2-c1ccccc1`, the inhibition was 80%. Regarding `O=c1oc(-c2ccccc2F)nc2c1cnn2-c1ccccc1`, the inhibition is 75%. For `COCc1nsc2nc(-c3ccccc3Cl)oc(=O)c12`, the inhibition was 0% (inactive). Next, `Cc1nsc2nc(-c3cc(S(C)(=O)=O)ccc3Cl)oc(=O)c12`: 5% (inactive).

As for `Cc1ccc(-c2csc3nc(-c4ccc(-c5ccccc5)cc4)oc(=O)c23)cc1`, the inhibition was 0% (inactive).

In the case of `CCOc1ccc(-c2csc3nc(-c4ccccc4OC)oc(=O)c23)cc1`, the inhibition was 35% (inactive).

Regarding `O=c1oc(-c2ccccn2)nc2ccccc12`, the inhibition is 45% (inactive). For the compound `CCOc1ccc(-c2csc3nc(-c4ccc(F)cc4)oc(=O)c23)cc1`, the inhibition is 0% (inactive). `O=c1oc(/C=C/c2ccccc2)nc2scc(-c3cccs3)c12`: the inhibition was 10% (inactive). Regarding `O=c1oc(-c2cccc(F)c2)nc2c1cnn2-c1ccccc1`, the inhibition is 70%. Take `CC(C)(C)c1ccc(-c2nc3sc4c(c3c(=O)o2)CCCC4)cc1`: the inhibition was 0% (inactive). Regarding `Cc1nsc2nc(-c3ccccc3Cl)oc(=O)c12`, the inhibition is 0% (inactive). `O=c1oc(Cc2ccccc2)nc2scc(-c3ccccc3)c12`: the inhibition is 45% (inactive). For the compound `O=C1CCC(=O)N1c1ccc(-c2nc3scc(-c4ccc(F)cc4)c3c(=O)o2)cc1`, the inhibition is 0% (inactive). As to `Cc1ccccc1-c1nc2scc(-c3ccc(Br)cc3)c2c(=O)o1`, the inhibition was 0% (inactive). For `Cc1nsc2nc(-c3cc(S(=O)(=O)N(C)Cc4ccccc4)ccc3Cl)oc(=O)c12`, the inhibition was 30% (inactive). To `Cc1nsc2nc(-c3cc(Cl)ccc3Cl)oc(=O)c12` belongs 15% (inactive); to `CCOc1cccc(-c2nc3ccc(OC(C)=O)cc3c(=O)o2)c1`, 5% (inactive).

On to `O=c1oc(-c2ccc(F)cc2)nc2scc(-c3cccs3)c12`, for which the inhibition was 0% (inactive). As to `O=c1oc(-c2ccccc2)nc2c1oc1ccccc12`, the inhibition is 35% (inactive).

As for `O=c1oc(-c2cccs2)nc2c1cnn2-c1ccccc1`, the inhibition is 70%. Next, `Cc1nsc2nc(-c3ccc([N+](=O)[O-])cc3Cl)oc(=O)c12`: 10% (inactive); `O=C1OC(=O)c2cc(-c3nc4ccccc4c(=O)o3)ccc21`: 0% (inactive); `O=c1oc(-c2ccccc2F)nc2scc(-c3ccc(Br)cc3)c12`: 50% (inactive). For the compound `CCc1nc2sc(-c3ccccc3)c(-c3ccccc3)c2c(=O)o1`, the inhibition was 55% (inactive). In the case of `COc1ccc(-c2csc3nc(-c4ccc(F)cc4)oc(=O)c23)cc1`, the inhibition is 0% (inactive). Regarding `COc1ccc(-c2csc3nc(-c4ccccc4C)oc(=O)c23)cc1`, the inhibition is 0% (inactive). With `Cc1ccc2nc(-c3ccccc3Cl)oc(=O)c2c1`, the inhibition is 15% (inactive). Consider `O=c1oc(-c2ccccc2F)nc2scc(-c3cccs3)c12`, for which the inhibition is 80%. For the compound `Cc1nsc2nc(-c3ccc(Cl)cc3Cl)oc(=O)c12`, the inhibition was 20% (inactive). For `COc1ccc(-c2csc3nc(Cc4ccccc4)oc(=O)c23)cc1OC`, the inhibition is 5% (inactive). Consider `O=C(Nc1cccc(-c2nc3ccccc3c(=O)o2)c1)c1ccccc1`, for which the inhibition is 50% (inactive). Take `Cc1sc2nc(-c3ccc(-c4ccccc4)cc3)oc(=O)c2c1C`: the inhibition is 0% (inactive). Next, `Cc1nsc2nc(-c3cc(Cl)nnc3Cl)oc(=O)c12`: 10% (inactive); `CC(=O)Oc1ccc2nc(-c3ccccc3)oc(=O)c2c1`: 0% (inactive). To `Cc1nc2c(oc3ccccc32)c(=O)o1` belongs 25% (inactive). Next, `Cc1nsc2nc(-c3cc(S(=O)(=O)N(C)C)ccc3Cl)oc(=O)c12`: 10% (inactive); `Cc1nsc2nc(-c3cc(S(=O)(=O)N4CCCC4)ccc3Cl)oc(=O)c12`: 65%; `O=c1oc(-c2ccc(-c3ccccc3)cc2)nc2scc(-c3ccccc3)c12`: 0% (inactive). `Cc1nsc2nc(-c3cccnc3Cl)oc(=O)c12`: the inhibition is 5% (inactive). To `COc1ccc(-c2csc3nc(-c4cccc5ccccc45)oc(=O)c23)cc1OC` belongs 5% (inactive). To `Cc1nsc2nc(-c3sc4ccccc4c3Cl)oc(=O)c12` belongs 20% (inactive).

Regarding `COc1ccc(-c2csc3nc(-c4ccccc4Br)oc(=O)c23)cc1`, the inhibition was 0% (inactive). As to `Cc1noc2nc(-c3ccccc3Cl)oc(=O)c12`, the inhibition is 5% (inactive). To `CCCc1nsc2nc(-c3ccccc3Cl)oc(=O)c12` belongs 15% (inactive); to `S=c1sc(-c2ccccc2Cl)nc2ccccc12`, 35% (inactive). With `CCOc1cc2nc(-c3ccccc3SC)oc(=O)c2cc1OCC`, the inhibition is 5% (inactive).

Regarding `CC(C)(C)c1ccc(-c2nc3scc(-c4cccs4)c3c(=O)o2)cc1`, the inhibition is 0% (inactive). Regarding `Cc1ccc(-c2nc3scc(-c4ccc(Br)cc4)c3c(=O)o2)cc1`, the inhibition is 0% (inactive). Regarding `O=c1oc(-c2ccco2)nc2c1cnn2-c1ccccc1`, the inhibition was 50% (inactive). With `O=c1oc(-c2cccc(Cl)c2)nc2scc(-c3ccc(Br)cc3)c12`, the inhibition is 0% (inactive).

Turning to `O=c1oc(-c2ccccc2)nc2c1oc1ccc(Cl)cc12`, the inhibition was 40% (inactive). Take `Cc1ccc(-c2csc3nc(-c4ccc(C(C)(C)C)cc4)oc(=O)c23)cc1`: the inhibition was 5% (inactive). For `COc1ccc(-c2csc3nc(-c4ccc(Cl)cc4)oc(=O)c23)cc1`, the inhibition was 0% (inactive). `O=c1oc(COc2ccccc2Cl)nc2ccccc12`: the inhibition is 10% (inactive). Next, `Cc1nsc2nc(-c3cc4ccccc4nc3Cl)oc(=O)c12`: 40% (inactive). `Cc1ccccc1-c1nc2scc(-c3cccs3)c2c(=O)o1`: the inhibition was 15% (inactive). For the compound `O=c1oc(-c2ccccc2)nc2c1cnn2-c1ccccc1`, the inhibition is 70%.

Regarding `CSc1ccc(Cl)c(-c2nc3snc(C)c3c(=O)o2)c1`, the inhibition is 10% (inactive). Next, `COc1cc2nc(-c3c(OC)cccc3OC)oc(=O)c2cc1OC`: 0% (inactive); `O=C1CCC(=O)N1c1ccc(-c2nc3scc(-c4ccccc4)c3c(=O)o2)cc1`: 65%; `CC(C)(C)c1nc2scc(-c3ccccc3)c2c(=O)o1`: 70%. `O=c1oc(-c2ccc(Br)cc2)nc2c1cnn2-c1ccccc1`: the inhibition was 0% (inactive). Regarding `O=c1oc(-c2ccc([N+](=O)[O-])cc2)nc2c1cnn2-c1ccccc1`, the inhibition was 0% (inactive).

`Cc1ccc(-c2nc3sc(C)c(C)c3c(=O)o2)cc1`: the inhibition was 0% (inactive). As to `COc1cc2nc(-c3ccccc3SC)oc(=O)c2cc1OC`, the inhibition was 15% (inactive). Next, `O=c1oc(-c2cccs2)nc2cc(Cl)ccc12`: 40% (inactive); `O=c1oc(-c2ccc(F)cc2)nc2scc(-c3ccc(Br)cc3)c12`: 0% (inactive). As for `Cc1nsc2nc(-c3cc(F)c(F)cc3Cl)oc(=O)c12`, the inhibition is 15% (inactive).
